Test: Stability of JAK3 covalent inhibitors in human whole blood;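 note: parent compound remaining over incubation time quantified by LC-MS/MS as peak area ratio against an internal standard, using pooled K2-EDTA blood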
Format: in vitro ADME
Conditions: both sexes, whole blood, 37° C., read-out: Human blood stability t1/2
From the text: Stability of JAK3 Covalent Inhibitors in Rat and Human Whole Blood
Rat blood was collected from 3 male Sprague-Dawley rats (200-250 g, Charles River Laboratories) and pooled for each study. Human blood was collected from one male and one female healthy subjects at the Occupational Health & Wellness Center at Pfizer, Groton, CT and pooled for each study. Both rat and human blood was collected freshly into K2-EDTA tubes and kept on ice. An aliquot of the blood was transferred to microtubes and pre-warmed for 10 min at 37° C. using a heat block. […] An aliquot of the incubation mixture was removed at designated time points during the course of the incubation, mixed with an aliquot of acetonitrile containing an internal standard, vortexed and centrifuged. The resulting supernatants were removed and subjected to LC-MS/MS analyses to determine parent compound concentrations. Peak area ratios of the parent compound vs the internal standard were used to determine the % of parent compound remaining vs incubation time.

For C=CC(=O)N1CCC(Nc2cnc3[nH]cc(C(=O)N[C@@H](C)COC)c3n2)CC1 [Example 277, 2-[(1-acryloylpiperidin-4-yl)amino]-N-[(2S)-1-methoxypropan-2-yl]-5H-pyrrolo[2,3-b]pyrazine-7-carboxamide], the half-life at 1 μM was over 6 h.

C=CC(=O)N1CCC(Nc2cnc3[nH]cc(C(=O)N[C@H](C)CC)c3n2)CC1 [Example 289, 2-[(1-acryloylpiperidin-4-yl)amino]-N-[(2R)-butan-2-yl]-5H-pyrrolo[2,3-b]pyrazine-7-carboxamide] showed a half-life at 1 μM of over 6 h.

C=CC(=O)N1CCN(c2cnc3[nH]cc(C(=O)NC(C)C)c3n2)CC1(C)C [Example 293, 2-(4-acryloyl-3,3-dimethylpiperazin-1-yl)-N-(propan-2-yl)-5H-pyrrolo[2,3-b]pyrazine-7-carboxamide] showed a half-life at 1 μM of over 6 h.

With C=CC(=O)N1CCC(C)(Nc2cnc3[nH]cc(C(=O)NC(C)C)c3n2)CC1 [Example 318, 2-[(1-acryloyl-4-methylpiperidin-4-yl)amino]-N-(propan-2-yl)-5H-pyrrolo[2,3-b]pyrazine-7-carboxamide] the half-life at 1 μM was 5.87 h.

Compound C=CC(=O)N1C[C@H](Nc2ncnc3[nH]ccc23)C[C@@H](OC)C1 [Example 77, 1-[(3R,5R)-3-Methoxy-5-(7H-pyrrolo[2,3-d]pyrimidin-4-ylamino)piperidin-1-yl]prop-2-en-1-one] has a half-life at 1 μM of 4.2 h.

Compound C=CC(=O)N1CCC[C@@H](Nc2ncnc3[nH]cc(-c4cncc(F)c4)c23)C1 [Example 23, 1-[(3R)-3-{[5-(5-fluoropyridin-3-yl)-7H-pyrrolo[2,3-d]pyrimidin-4-yl]amino}piperidin-1-yl]prop-2-en-1-one] has a half-life at 1 μM of over 6 h.

C=CC(=O)N1C[C@H](C)C[C@@H](Nc2ncnc3[nH]ccc23)C1 (racemic) [Example 65, Rac-1-((3R,5R)-3-((7H-Pyrrolo[2,3-d]pyrimidin-4-yl)amino)-5-methylpiperidin-1-yl)prop-2-en-1-one] showed a half-life at 1 μM of 4.45 h.

Work on C=CC(=O)N1CC[C@@H]2CCN(c3nc(N)nc4[nH]ccc34)[C@@H]2C1 [Example 73, 1-[(3aS,7aS)-1-(2-Amino-7H-pyrrolo[2,3-d]pyrimidin-4-yl)octahydro-6H-pyrrolo[2,3-c]pyridin-6-yl]prop-2-en-1-one] yielded a half-life at 1 μM of 3.25 h.

For C=CC(=O)N1CCC(Nc2cnc3[nH]cc(C(=O)NC[C@H](C)CC(F)(F)F)c3n2)CC1 [Example 241, 2-[(1-acryloylpiperidin-4-yl)amino]-N-[(2R)-4,4,4-trifluoro-2-methylbutyl]-5H-pyrrolo[2,3-b]pyrazine-7-carboxamide], the half-life at 1 μM was over 5.17 h.

In the case of C=CC(=O)N1CCC[C@H]1CNc1cnc2[nH]cc(C(=O)NC(C)C)c2n1 [Example 177, 2-({[(2S)-1-acryloylpyrrolidin-2-yl]methyl}amino)-N-(propan-2-yl)-5H-pyrrolo[2,3-b]pyrazine-7-carboxamide], the half-life at 1 μM is reported as over 5.35 h.

Work on C=CC(=O)N1CC[C@H](F)[C@@H](Nc2ncnc3[nH]ccc23)C1 [Example 4, 1-((3S,4S)-3-((7H-pyrrolo[2,3-d]pyrimidin-4-yl)amino)-4-fluoropiperidin-1-yl)prop-2-en-1-one] yielded a half-life at 1 μM of 2.33 h.

C=CC(=O)N[C@H]1C[C@H](Nc2cnc3[nH]cc(C(=O)NC(C)C)c3n2)C1 [Example 198, 2-{[trans-3-(acryloylamino)cyclobutyl]amino}-N-(propan-2-yl)-5H-pyrrolo[2,3-b]pyrazine-7-carboxamide] gave a half-life at 1 μM of over 6 h.

Work on C=CC(=O)N1CCC[C@@H](Nc2ncnc3[nH]cc(-c4ccc5c(cnn5C)c4)c23)C1 [Example 34, 1-[(3R)-3-{[5-(1-methyl-1H-indazol-5-yl)-7H-pyrrolo[2,3-d]pyrimidin-4-yl]amino}piperidin-1-yl]prop-2-en-1-one] yielded a half-life at 1 μM of over 6 h.

C=CC(=O)N1CC(Nc2cnc3[nH]ccc3n2)C1 [Example 337, 1-(3-((5H-Pyrrolo[2,3-b]pyrazin-2-yl)amino)azetidin-1-yl)prop-2-en-1-one] showed a half-life at 1 μM of 1.35 h.

Compound C=CC(=O)N1CCC(Nc2cnc3[nH]cc(C(=O)N[C@@H]4CCC[C@H]4F)c3n2)CC1 [Example 237, 2-[(1-acryloylpiperidin-4-yl)amino]-N-[(1R,2R)-2-fluorocyclopentyl]-5H-pyrrolo[2,3-b]pyrazine-7-carboxamide] has a half-life at 1 μM of 4.05 h.

In the case of C=CC(=O)N1CCC(Nc2cnc3[nH]cc(C(=O)NCC(F)(F)F)c3n2)CC1 [Example 273, 2-[(1-acryloylpiperidin-4-yl)amino]-N-(2,2,2-trifluoroethyl)-5H-pyrrolo[2,3-b]pyrazine-7-carboxamide], the half-life at 1 μM is reported as 3.63 h.

For C=CC(=O)N1C[C@H](C#N)C[C@@H](Nc2ncnc3[nH]ccc23)C1 [Example 6, (3R,5R)-5-((7H-pyrrolo[2,3-d]pyrimidin-4-yl)amino)-1-acryloylpiperidine-3-carbonitrile], the half-life at 1 μM was 4.22 h.

Work on C=CC(=O)N1CCC(Nc2cnc3[nH]cc(C(=O)NCCOC)c3n2)CC1 [Example 275, 2-[(1-acryloylpiperidin-4-yl)amino]-N-(2-methoxyethyl)-5H-pyrrolo[2,3-b]pyrazine-7-carboxamide] yielded a half-life at 1 μM of over 6 h.

For C=CC(=O)N1CCC(Oc2cnc3[nH]cc(-c4ccnc(C)c4)c3n2)CC1 [Example 220, 1-(4-{[7-(2-methylpyridin-4-yl)-5H-pyrrolo[2,3-b]pyrazin-2-yl]oxy}piperidin-1-yl)prop-2-en-1-one], the half-life at 1 μM was over 6 h.

C=CC(=O)N1CCC[C@@H](Nc2ncnc3[nH]cc(-c4cccnc4)c23)C1 [Example 26, 1-[(3R)-3-{[5-(pyridin-3-yl)-7H-pyrrolo[2,3-d]pyrimidin-4-yl]amino}piperidin-1-yl]prop-2-en-1-one] gave a half-life at 1 μM of over 6 h.

Work on C=CC(=O)N1CC[C@@H]2OCCN(c3ncnc4[nH]ccc34)[C@@H]2C1 [Example 90, 1-[(4aR,8aS)-4-(7H-Pyrrolo[2,3-d]pyrimidin-4-yl)hexahydro-2H-pyrido[4,3-b][1,4]oxazin-6(5H)-yl]prop-2-en-1-one] yielded a half-life at 1 μM of 2.8 h.

C=CC(=O)N1CCC(Nc2cnc3[nH]cc(C(=O)NCC(C)C)c3n2)CC1 [Example 272, 2-[(1-acryloylpiperidin-4-yl)amino]-N-(2-methylpropyl)-5H-pyrrolo[2,3-b]pyrazine-7-carboxamide] gave a half-life at 1 μM of 3.62 h.

C=CC(=O)N1C[C@H](Nc2ccnc3[nH]cc(C#N)c23)CC[C@@H]1C [Example 165, 4-{[(3R,6S)-1-Acryloyl-6-methylpiperidin-3-yl]amino}-1H-pyrrolo[2,3-b]pyridine-3-carbonitrile] gave a half-life at 1 μM of over 5.82 h.

For C=CC(=O)N1CCC(Nc2cnc3[nH]cc(C(=O)NC(C)(C)C)c3n2)CC1 [Example 266, 2-[(1-acryloylpiperidin-4-yl)amino]-N-tert-butyl-5H-pyrrolo[2,3-b]pyrazine-7-carboxamide], the half-life at 1 μM was 5.6 h.

With C=CC(=O)N1CCC[C@@H](Nc2ncnc3[nH]cc(F)c23)C1 [Example 42, 1-{(3R)-3-[(5-fluoro-7H-pyrrolo[2,3-d]pyrimidin-4-yl)amino]piperidin-1-yl}prop-2-en-1-one] the half-life at 1 μM was over 6 h.

For C=C(C)C(=O)N1CC[C@@H]2CCN(c3ncnc4[nH]ccc34)[C@@H]2C1 [Example 85, 2-methyl-1-[(3aS,7aS)-1-(7H-pyrrolo[2,3-d]pyrimidin-4-yl)octahydro-6H-pyrrolo[2,3-c]pyridin-6-yl]prop-2-en-1-one], the half-life at 1 μM was over 6 h.

With C=CC(=O)N1C[C@H](Nc2ncnc3[nH]ccc23)CC[C@@H]1CO (single isomer, unassigned) [Example 7] the half-life at 1 μM was over 5.56 h.
